Patent US20240272142A1, “METHOD FOR DETERMINING WHITENING EFFICACY OF COSMETIC RAW MATERIAL AND USE THEREOF” (SHENZHEN INSTITUTE FOR DRUG CONTROL (SHENZHEN TESTING …, priority 2023, published 2024)
Several values for one entry are separate records, joined by “and”; a condition that tells them apart may be missing. Equal entries are not always repeated.

System: mouse melanoma cells B16-F10
Assay: Relative melanin content of B16-F10 cells after 24 h stimulation with α-MSH (Example 1)
Format: cell-based
Details: absorbance at 405 nm relative to blank group, three replicate values
Experimental: The results in the examples of the present disclosure are all expressed in terms of a relative melanin content: the relative melanin content=absorbance of the experimental group/absorbance of the blank group×100%.
• (1) A cell suspension of B16-F10 cells in a logarithmic growth phase was inoculated into 6-well plates in a cell density of 2×10^5 cells/mL, with an amount being 2 mL in each well, and then added into a 5% carbon dioxide incubator and cultured at a temperature of 37° C. for 24 h. • (2) A medium contained in the 6-well plates was removed, the B16-F10 cells were washed with 2 mL of the PBS, 2 mL of substances from each of the following groups each were added into each well of the 6-well plates, and then cultured in the 5% carbon dioxide incubator at a temperature of 37° C. for 24 h.
Blank group: 2 mL of a basal DMEM was added into each well.
Model group: 2 mL of a-MSH solutions with different concentrations (0.5 μM, 1 μM, 2.5 μM, 5 μM, and 10 μM) were separately added into each well. • (3) Determination of a relative melanin content: the basal DMEM in the 6-well plates was removed by using a sterile pipette, the B16-F10 cells were washed with 2 mL of the PBS, and digested with 400 μL of trypsin; then the digesting was terminated with 1 mL of a complete DMEM; the B16-F10 cells were collected into centrifuge tubes, and centrifuged at 2,500 rpm for 10 min; a resulting supernatant after centrifugation was discarded, the resulting B16-F10 cells were centrifuged with 1,000 μL of the PBS for a second time, 500 μL of a 1 mol/L NaOH solution (containing 10% of DMSO) was added into each of the centrifuge tubes, and subjected to water bath at a temperature of 80° C. for 1 h to obtain a product; 200 μL of the product was transferred into a 96-well plate, an absorbance at 405 nm was determined and calculated to obtain the relative melanin content.

Q: Which Relative melanin content (α-MSH 0.5 μM) does the source give for “α-melanocyte-stimulating hormone [α-MSH]” here?
A: Its Relative melanin content is 102.51% and 111.76% and 97.21%.

Q: And the Relative melanin content (α-MSH 1.0 μM)?
A: The Relative melanin content was 104.65% and 100.54% and 103.16%.

Q: And the Relative melanin content (α-MSH 2.5 μM)?
A: The Relative melanin content was 98.75% and 98.22% and 102.18%.

Q: What about the Relative melanin content (α-MSH 5.0 μM) of the same substance?
A: Its Relative melanin content is 96.79% and 97.45% and 95.71%.

Q: And the Relative melanin content (α-MSH 10 μM)?
A: Its Relative melanin content is 111.71% and 108.05% and 112.79%.
